Data on 4 molecules can be found in patent publication US4369120A, “Refrigeration liquid with leak indicator and process of using same” (priority 1981, dated 1983).

Structures are written as SMILES. Entries after “also recorded” stand apart in the source; their conditions may differ.

The nature of data set [1]: Sealed tube test of stability of dyes in refrigerant/refrigeration oil with metal coupons. The data set is classed as physicochemical. The conditions noted are these: for Stability, Mean Life: Table I, sealed tube data in R-12 at 350° F.; for stability as measured by the sealed tube test: text summary of Table I, 350° F. Here is the method:
By reference to Table I below it can be appreciated that such ortho substitution has a remarkably beneficial effect on the stability of the dyes in the accelerated sealed tube test used for evaluation. The first three dyes listed, embodying the principles of this invention, routinely withstand in excess of twenty days in the sealed tube test at 350° F. (176.7° C.), equivalent to many years of normal use in a refrigeration system.
The sealed tube test serves as a method of evaluating in an accelerated manner interactions of materials found in a refrigeration system.
Glass tubes and all metal test coupons are scrupulously cleaned. Test refrigerants are distilled to minimize moisture contamination. Moisture is removed from the refrigeration test oil "Suniso" 3GS by subjecting the oil to a vacuum with slight stirring and heating. Ratios of refrigerant/refrigerant oil range from 1:1 to 1:2 by weight.
Refrigerant oil and representative metal coupons of copper #10AWG wire, Swedish valve stock steel, and aluminum metal sheet are placed in a glass tube along with the subject test dye material (0.25-1.0% wt/wt) dissolved in the refrigerant oil. Like samples without the subject dye are analyzed as controls.
The tube and its contents are chilled in a liquid nitrogen bath while the refrigerant is condensed into the tube via a calibrated manometer. The tube is sealed under a vacuum of at least 0.1 torr.
Glass tubes and contents are subjected to uniform heating in a bored aluminum block placed in a temperature-programmed oven.
The oven temperatures used vary according to the test refrigerant, as indicated:
The test is run for one of the following time periods: 5, 14, 21, 30 or 60 days.
The tube contents may be evaluated by several methods:
of these methods, the visual examination is the most rapid and the only qualitative method. Any color change in the subject dye coloration is noted when compared to a control sample.
The quantitative methods involve analysis for decomposition products of chloride as hydrochloric acid or organic products by gas chromatography, infrared spectroscopy, or mass spectroscopy. However, visual inspection and gas chromatography are widely used, and they were selected as standardization procedures for evaluation of sealed tube contents.
R-12 is chemically one of the more reactive refrigerants; thus, short term tests with refrigeration liquids containing this refrigerant admixed with a mineral oil yield the most rapid results. R-22 and R-502 are also used but the decomposition products are more difficult to analyze by gas chromatography. Ultimately the test material must pass interactions involving any of these refrigerants. The visual method can be used empirically on a pass-fail basis. As verified experimentally, visual results are considered as valid as instrumental methods.

Data set [2] is described as follows: Solubility of dyes in halocarbon refrigerants. The data set is classed as physicochemical. The conditions noted are these: for Refr. Sol. In R-12: Table I, refrigerant R-12. Here is the method:
Solubilities of various dyes in various halocarbon refrigerants were also determined according to the following standardized procedure. […] The R-11 was allowed to vaporize, leaving a known amount of dye in the bottom portion of the test tube. The tube was then attached to a charging apparatus containing a supply of a given halocarbon refrigerant and various amounts of the refrigerant were charged into the tube while chilling the latter by immersion in liquid nitrogen. The tube containing the dye/refrigerant mixture was sealed under vacuum, allowed to reach room temperature (about 21° C.) and rotated for several hours. Visual inspection of the tube was made at several temperatures to note the degree of dissolution. The procedure was improved over previously used methods in that an exact predetermined amount of dye and refrigerant were made to interact, requiring fewer weighings. Finally, it became possible to use the same tube to check solubility at several different temperatures.

A short description of data set [3]: Solubility of dyes in refrigeration oils. The conditions noted are these: for Dye Solubility in refrigeration oil: room temperature (about 21° C.); for Oil Sol. In 3GS: Table I, Suniso 3GS refrigeration oil. The method, then:
Manufacturers of refrigeration equipment generally demand that any refrigeration liquid satisfactorily pass such a sealed tube test before they approve the liquid for use in their equipment. In addition, the solubility of the various dyes in oil and in refrigerant were determined.
Solubility of various dyes in various refrigeration oils was carefully determined according to the following standardized procedure. An excess of the subject dye was added to a given weight (e.g., 100 g) of refrigerant oil. The mixture was stirred for one-half hour with mild heating, whereupon it was cooled to room temperature (about 21° C.) and transferred to a centrifuge tube. The mixture was centrifuged approximately 15 minutes at 1000 rpm. A sample of the supernatant liquid was decanted (1.00 g±0.01 g) and diluted to 100 ml volume with methylene chloride. Aliquot portions were taken and read against the principal absorption peaks by visible light spectroscopy. Wt/wt percentage concentrations were then calculated from proper standard curves.

The conditions of data set [4]: 400° F. (204.4° C.), reported in U.S. Pat. No. 3,770,640; cited from earlier work.

Take `CCc1cccc(C)c1Nc1ccc(Nc2c(C)cccc2CC)c2c1C(=O)c1ccccc1C2=O` [Dye No. 1-35, 1,4-bis(2-methyl-6-ethylanilino)anthraquinone]: the “stability in the sealed tube test at 402° F. (in words)” value in data set [1] (402° F. (205.5° C.), compared with 350° F.) was “virtually as stable at 402° F. (205.5° C.) as it is at 350° F. (176.7° C.); also recorded: excellent stability of dye No. 1-35 persists even at much higher test temperatures”. The “Mean Life, Days at 350° F.” value amounted to 24.0 days in data set [1] (Sample C, purity 97%); 24.0 days in data set [1] (Sample D, purity 95%); 17.0 days in data set [1] (Sample E, purity 89%); 5.0 days in data set [1] (Sample F, purity 65%); 26.2 days in data set [1] (Samples A and B, purity 100% (by definition)). Besides, in data set [1], the “Stability, Mean Life” value is on record as 26.2 days. In data set [1], the “stability as measured by the sealed tube test” value (“stability as measured” below) is listed as more than 20 days. Further, the “solubility in the halocarbon refrigerant (in words)” value in data set [2] was “sufficient solubility; also recorded: substantially greater solubility in the various refrigerants than the other dyes tested”. The Solubility in refrigerant is 0.2 %(wt/wt) in data set [2] (R-11, 21° C.); 0.2 %(wt/wt) in data set [2] (R-12, 0° C.); 0.2 %(wt/wt) in data set [2] (R-12, 21° C.); 0.2 %(wt/wt) in data set [2] (R-12, -20° C.); 0.4 %(wt/wt) in data set [2] (R-22, 0° C.); 0.4 %(wt/wt) in data set [2] (R-22, 21° C.). Also, the Solubility in refrigerant is 0.4 %(wt/wt) in data set [2] (R-22, -20° C.); < 0.1 %(wt/wt) in data set [2] (R-502, 0° C.); 0.1 %(wt/wt) in data set [2] (R-502, 21° C.); < 0.1 %(wt/wt) in data set [2] (R-502, -20° C.). The “Refr. Sol. In R-12” value in data set [2] is on record as 0.2%. Also, the “solubility in the refrigeration oil (in words)” value in data set [3] is on record as “relatively high solubility”. Moreover, the “Dye Solubility in refrigeration oil” value is 5.3 %(wt/wt) in data set [3] (DuPont Zephron 150 (alkyl benzene type)); 4.8 %(wt/wt) in data set [3] (Suniso 3GS); 4.6 %(wt/wt) in data set [3] (Suniso 4GS); 4.8 %(wt/wt) in data set [3] (Suniso 5GS); 4.8 %(wt/wt) in data set [3] (Texaco Cappella D); 4.9 %(wt/wt) in data set [3] (Texaco Cappella E). The “Oil Sol. In 3GS” value in data set [3] was determined as 4.8%. Also, the “solubility in representative naphthenic and alkyl benzene refrigeration oils” value in data set [3] (summary of Table II) is on record as “about 5%”.
Turning to `Cc1cc(C)c(Nc2ccc(Nc3c(C)cc(C)cc3C)c3c2C(=O)c2ccccc2C3=O)c(C)c1` [Dye No. 3-25, 1,4-Bis(mesidino)anthraquinone], in data set [1], the “Stability, Mean Life” value came to 24.3 days and the “stability as measured” value is recorded as more than 20 days. In data set [2], the “solubility in the halocarbon refrigerant (in words)” value is recorded as “sufficient solubility” and the “Refr. Sol. In R-12” value was less than 0.1%. Moreover, in data set [3], the “solubility in the refrigeration oil (in words)” value was “relatively high solubility” and the “Oil Sol. In 3GS” value came out at 0.55%.
As to `Cc1cccc(C)c1Nc1ccc(Nc2c(C)cccc2C)c2c1C(=O)c1ccccc1C2=O` [Dye No. 2-31, 1,4-Bis(2,6-dimethylanilino)-anthraquinone], in data set [1], the “Stability, Mean Life” value is given as 22.4 days and the “stability as measured” value is listed as more than 20 days. For the same molecule, in data set [2], the “solubility in the halocarbon refrigerant (in words)” value is reported as “sufficient solubility” and the “Refr. Sol. In R-12” value was less than 0.1%. Also, the Solubility in refrigerant in data set [2] (R-12, 21° C.) is < 0.02 %(wt/wt). The Solubility in refrigerant in data set [2] (R-22, 21° C.) was 0.04 %(wt/wt). In addition, in data set [2] (R-502, 21° C.), the Solubility in refrigerant is < 0.02 %(wt/wt). Further, in data set [3], the “solubility in the refrigeration oil (in words)” value is “relatively high solubility” and the “Oil Sol. In 3GS” value turned out to be 0.1%.
Take `CCc1cc(CC)c(Nc2ccc(Nc3c(CC)cc(CC)cc3CC)c3c2C(=O)c2ccccc2C3=O)c(CC)c1` [1,4-bis(2,4,6-triethylanilino)anthraquinone]: in data set [4], the “stability in the sealed tube test at 400° F. (in words)” value was “very unstable; also recorded: so poor as to make this dye commercially unacceptable”.
